Experimental data: patent publication US20020120147A1, “Micronized torsemide” (priority 2000, published 2002)

Legend:
[1] = background statement; cited from earlier work
[2] = particle size after micronization in a micronizer; type: physicochemical; conditions: pure dry torsemide micronized in a micronizer (Example 1)
Excerpt: Pure dry torsemide was micronized in a micronizer. The result was micronized torsemide of a particle size of less than 5 micrometer.

| particle size [2] | SMILES | solubility in water [1] |
| --- | --- | --- |
|  | Cc1cccc(Nc2ccncc2S(=O)(=O)NC(=O)NC(C)C)c1 [Torsemide, 1-Isopropyl-3-[(4-m-toluidino-3-pyridyl)sulfonyl] urea] | essentially insoluble |
| less than 5 micrometer | Cc1cccc(Nc2ccncc2S(=O)(=O)NC(=O)NC(C)C)c1 [micronized torsemide, 1-Isopropyl-3-[(4-m-toluidino-3-pyridyl)sulfonyl] urea] |  |
